Entries after “also recorded” stand apart in the source; their conditions may differ. Like-named read-outs stand apart in the source and are kept apart here.
Tests used:
MOLT-4 = test: cells; conditions: Homo sapiens
Protocol: The screening assay is performed on a 96-well microtitre plates.
Dose response curves, shown in the above mentioned Figures, are obtained by exposing various cancer cell lines to compounds having a known concentration ([log10 M]), as discussed in detail above, and then plotting the percentage growth of each cell line for each concentration. […] As discussed previously, the five drug dilutions routinely tested range from 10^-4 to 10^-9 molar.

SR = test: cells; type: cell-based; conditions: Homo sapiens, read-out: Log10 TGI (converted)
A549/ATCC = test: NCI 60 cell line screen (SRB), non-small cell lung cancer; type: cell-based; conditions: Homo sapiens
EKVX = test: as above; type: cell-based; conditions: Homo sapiens
HOP-62 = test: cells; type: cell-based; conditions: Homo sapiens
HOP-92 = test: NCI 60 cell line screen (SRB), non-small cell lung cancer; type: cell-based; conditions: Homo sapiens
NCI-H226 = test: as above; type: cell-based; conditions: Homo sapiens
NCI-H23 = test: as above; type: cell-based; conditions: Homo sapiens
NCI-H460 = test: cells; type: cell-based; conditions: Homo sapiens
HCT-116 = test: cells; type: cell-based; conditions: Homo sapiens
HCT-15 = test: cells; type: cell-based; conditions: Homo sapiens, HCT-15; read-out: Log10 TGI (converted)
HT29 = test: cells; type: cell-based; conditions: Homo sapiens, HT-29, read-out: Log10 TGI (converted)
KM12 = test: cells; type: cell-based; conditions: Homo sapiens, read-out: Log10 TGI (converted)
SW-620 = test: NCI 60 cell line screen (SRB), colon cancer; type: cell-based; conditions: Homo sapiens, read-out: Log10 TGI (converted)
SNB-19 = test: cells; type: cell-based; conditions: Homo sapiens
SNB-75 = test: cells; type: cell-based; conditions: Homo sapiens, read-out: Log10 TGI (converted)
U251 = test: cells; type: cell-based; conditions: Homo sapiens
LOX IMVI = test: cells; type: cell-based; conditions: Homo sapiens
SK-MEL-2 = test: cells; type: cell-based; conditions: Homo sapiens
UACC-257 = test: cells; type: cell-based; conditions: Homo sapiens, read-out: Log10 TGI (converted)
OVCAR-8 = test: NCI 60 cell line screen (SRB), ovarian cancer; type: cell-based; conditions: Homo sapiens
A498 = test: cells; type: cell-based; conditions: Homo sapiens
TK-10 = test: cells; type: cell-based; conditions: Homo sapiens, read-out: Log10 GI50 (converted)
UO-31 = test: NCI 60 cell line screen (SRB), renal cancer; type: cell-based; conditions: Homo sapiens, read-out: Log10 TGI (converted)
PC-3 = test: cells; type: cell-based; conditions: Homo sapiens, PC-3
MCF7 = test: cells; type: cell-based; conditions: Homo sapiens, MCF7
MDA-MB231/ATCC = test: cells; type: cell-based; conditions: Homo sapiens
MDA-N = test: cells; type: cell-based; conditions: Homo sapiens
BT-549 = test: cells; type: cell-based; conditions: Homo sapiens
T-47D = test: cells; type: cell-based; conditions: Homo sapiens, T47D; T-47D; read-out: Log10 TGI (converted)
60 cell line panel = test: NCI 60 cell line screen, whole panel; type: cell-based
IGROVI = test: cells; conditions: 60 cell, read-out: Log10 TGI
ACHN = test: cells; conditions: Homo sapiens
RXF 393 = test: cells; conditions: Homo sapiens
M14 = test: NCI 60 cell line screen (SRB), melanoma; conditions: Homo sapiens
[1] = read-out: Log10 LC50 (converted)
[2] = read-out: Log10 TGI (converted)
[3] = read-out: Log10 GI50 (converted)

Compound: C[C@H]1[C@@H](CC(=O)c2ccc(C(=O)C[C@H]3O[C@@H]4O[C@@]5(C)CC[C@H]6[C@H](C)CC[C@@H]([C@H]3C)[C@@]46OO5)cc2)O[C@@H]2O[C@@]3(C)CC[C@H]4[C@H](C)CC[C@@H]1[C@@]24OO3 [Dimer 21]
- IC (TGI) (MOLT-4; MOLT-4, read-out: Log10 TGI): 12.9 µM
- IC (TGI) (MOLT-4; MOLT-4, read-out: concentration for cytostasis): ~100 µM
- GI50 (MOLT-4; MOLT-4, read-out: concentration for primary growth inhibition): < 0.1 µM
- IC (TGI) (SR): > 100 µM
- CC50 (A549/ATCC; [1]): 37.2 µM
- IC (TGI) (A549/ATCC; [2]): 13.5 µM
- GI50 (EKVX; [3]): 1.15 µM
- CC50 (EKVX; [1]): > 100 µM
- IC (TGI) (EKVX; [2]): 26.3 µM
- GI50 (HOP-62; [3]): 0.417 µM
- CC50 (HOP-62; [1]): 52.5 µM
- IC (TGI) (HOP-62; [2]): 17.4 µM
- GI50 (HOP-92; [3]): 0.0708 µM
- CC50 (HOP-92; [1]): 83.2 µM
- IC (TGI) (HOP-92; [2]): 17.4 µM
- GI50 (NCI-H226; [3]): 0.0832 µM
- CC50 (NCI-H226; [1]): > 100 µM
- IC (TGI) (NCI-H226; [2]): 28.2 µM
- GI50 (NCI-H23; [3]): 0.012 µM
- IC (TGI) (NCI-H23; [2]): > 100 µM
- IC (TGI) (NCI-H460; NCI-H460, read-out: Log10 TGI): > 100 µM
- GI50 (NCI-H460; NCI-H460, read-out: Log10 GI50 (converted)): 0.525 µM
- CC50 (NCI-H460; NCI-H460, read-out: Log10 LC50 (converted)): > 100 µM
- CC50 (HCT-116; [1]): 51.3 µM
- IC (TGI) (HCT-116; [2]): 12.6 µM
- IC (TGI) (HCT-15): 24.5 µM
- IC (TGI) (HT29): 15.1 µM
- IC (TGI) (KM12): 14.5 µM
- IC (TGI) (SW-620): 87.1 µM
- GI50 (SNB-19; [3]): 0.537 µM
- IC (TGI) (SNB-19; [2]): 41.7 µM
- IC (TGI) (SNB-75): 34.7 µM
- CC50 (U251; U-251, read-out: Log10 LC50 (converted)): 41.7 µM
- IC (TGI) (U251; U-251, read-out: Log10 TGI (converted)): 17 µM
- CC50 (LOX IMVI; [1]): 49 µM
- IC (TGI) (LOX IMVI; [2]): 12 µM
- GI50 (SK-MEL-2; [3]): 0.0389 µM
- CC50 (SK-MEL-2; [1]): 25.1 µM
- IC (TGI) (SK-MEL-2; [2]): 0.55 µM
- IC (TGI) (UACC-257): 17.8 µM
- CC50 (OVCAR-8; [1]): 41.7 µM
- IC (TGI) (OVCAR-8; [2]): 12.3 µM
- GI50 (A498; [3]): 1.82 µM
- CC50 (A498; [1]): 64.6 µM
- IC (TGI) (A498; [2]): 19.1 µM
- GI50 (TK-10): 0.00288 µM
- IC (TGI) (UO-31): 57.5 µM
- CC50 (PC-3; [1]): 47.9 µM
- IC (TGI) (PC-3; [2]): 11.5 µM
- CC50 (MCF7; [1]): 53.7 µM
- IC (TGI) (MCF7; [2]): 13.2 µM
- GI50 (MDA-MB231/ATCC; MDA-MB-231, read-out: Log10 GI50 (converted)): 0.178 µM
- CC50 (MDA-MB231/ATCC; MDA-MB-231, read-out: Log10 LC50 (converted)): 46.8 µM
- IC (TGI) (MDA-MB231/ATCC; MDA-MB-231, read-out: Log10 TGI (converted)): 16.2 µM
- CC50 (MDA-N; [1]): 39.8 µM
- IC (TGI) (MDA-N; [2]): 5.75 µM
- GI50 (BT-549; [3]): 0.263 µM
- IC (TGI) (BT-549; [2]): 49 µM
- IC (TGI) (T-47D): 2.57 µM
- GI50 (60 cell line panel; 60 cell, mean over panel, read-out: Log10 GI50 MG MID (converted)): 0.0589 µM
- IC (TGI) (60 cell line panel; 60 cell, mean over panel, read-out: Log10 TGI MG MID (converted)): 93300 µM
- CC50 (60 cell line panel; Homo sapiens, 60 cell, mean over panel, read-out: Log10 LC50 MG MID (converted)): 64.6 µM
- potency compared with artemisinin (60 cell line panel; Tables III, IV and V): more potent than artemisinin
- potency compared with paclitaxel (60 cell line panel; Tables III, IV and V): in most instances are as potent and in some instances more potent than paclitaxel; also recorded: equivalent to and in many instances higher in potency than paclitaxel
- Log10 TGI Range (60 cell line panel; panel): 4.00
- IC (TGI) (IGROVI): 12 µM
- GI50 (ACHN; [3]): 0.0195 µM
- CC50 (ACHN; [1]): > 100 µM
- IC (TGI) (ACHN; read-out: Log10 TGI): 69.2 µM
- GI50 (RXF 393; RXF 393, read-out: Log10 GI50 (converted)): 2.57 µM
- CC50 (RXF 393; RXF 393, read-out: Log10 LC50 (converted)): 49 µM
- IC (TGI) (RXF 393; RXF 393, read-out: Log10 TGI): 19.5 µM
- GI50 (M14; M14, read-out: Log10 GI50 (converted)): 1.26 µM
- CC50 (M14; M14, read-out: Log10 LC50 (converted)): 45.7 µM
- IC (TGI) (M14; M14, read-out: Log10 TGI): 17.8 µM

— patent US6156790A, “C-10 carbon-substituted artemisinin-like trioxane compounds having antimalarial, antiproliferative and antitumor activities” (priority 1997, dated 2000)
